Patent publication US20240124714A1, “NEAR INFRARED DYES FOR BIOLOGICAL IMAGING AND OPTOELECTRONIC DEVICES” (Mississippi State University, priority 2022, published 2024)

Key:
[1] = Absorption spectra (maximum absorption wavelength); type: physicochemical
Method: All chemicals and solvents were purchased from commercial suppliers and used without further purification unless other-wise specified. ^1H NMR (500 MHz) and ^13C NMR ([…]) spectra were recorded in deuterated solvents on a Bruker ADVANCE 500 NMR Spectrometer. J values are expressed in Hz and quoted chemical shifts are in ppm downfield from tetramethylsilane (TMS) reference using the residual protonated solvents as an internal standard. The signals have been designated as follows: s (singlet), d (doublet), t (triplet), m (multiplets). All the ^13C NMR are proton decoupled. High resolution mass spectra (HRMS) were determined on Broker-micrOTOF-Q II Mass Spectrometer. Concentrations are given in μM. Absorption spectra were acquired using a Cary 5000 UV-Vis-NIR spectrophotometer in a 1 cm quartz cell.
The IR spectrums of the closed (Compound 3) and opened (XanthCR-880) forms of the dye are very distinct. The IR spectrums were obtained in dichloromethane (DCM) and dimethyl sulfoxide (DMSO) (FIG. 2). The maximum absorption wavelength (λabs) of the closed form (Compound 3) is 372 nm. However, when the dye was trapped in the opened form as the ethyl ester (XanthCR-880), the λabs shifted to 880 nm in DCM and 890 nm in DMSO, both of which are at the edge of the NIR I region and trail into the NIR II region.

[2] = Photoacoustic spectrum (PA contrast agent compatibility); type: physicochemical
Method: Photoacoustic A imaging was performed on an iThera Medical MSOT inVision 128 tomographer.
(§1) The XanthCR-880 dye was evaluated for its compatibility as a PA contrast agent in chloroform (FIG. 3C) and PBS buffer and observed that the strongest intensity (XPA) was at 890 nm and 865 nm, respectively.

[3] = Photobleaching under continuous irradiation; type: physicochemical; conditions: continuous irradiation at λPA for 60 min; 20 μM in CHCl3
Description: Ideally PA contrast agents are photostable. When PA contrast agent are used in studies, they may be subjected to multiple imaging sessions, and as such are ideally resistant to photobleaching.

[4] = Stability of the dye against glutathione (change in absorption at 880 nm); type: in vitro ADME; conditions: 17 μM dye, 40% DMSO/60% PBS, 10 mM reduced glutathione, after 30 min
Method: (§2) FIGS. 3A-3B show absorption studies depicting the stability of XanthCR-880 (20 μM) to the treatment of glutathione (10 mM) (FIG. 3A) and esterase (5 units) (FIG. 3B).
The XanthCR-880 dye was also shown to have excellent stability. The stability of XanthCR-880 dye was tested against glutathione, which is a potential reducing agent in biological media. The XanthCR-880 dye (17 μM) was prepared in 40% DMSO/60% PBS solution with 10 mM reduced glutathione and evaluated the change in the maximum absorption at 880 nm. The 10 mM concentration of reduced glutathione was selected to reflect the highest reported levels found in the body (i.e., liver). There was no change observed in the absorbance of the dye after 30 min.

[5] = Fluorescence (fluorescent quantum yield attempt); type: physicochemical; conditions: attempts to determine the fluorescent quantum yield
Description: Fluorescence spectra were acquired using a custom-built setup with discrete excitation wavelengths ranging from 226 nm to 1059 nm with a temperature range from 4.2 K to 300 K using a liquid He bath cryostat. Alternatively, a Horiba QuantaMaster 8075-21 spectrofluorometer with xenon lamp excitation and liquid nitrogen cooled indium gallium arsenide solid state detector could be used. […] excitation was chosen to coincide with a Xe emission peak.

porcine liver esterase = assay: Stability in the presence of esterase (absorbance); type: in vitro ADME; conditions: room temperature, 30 min
Method: as §2, §1

Structure (SMILES) | maximum absorption wavelength (λabs) ([1]; closed form, spectra obtained in DCM and DMSO, solvent of this value not stated) [nm] | wavelength of strongest photoacoustic intensity (λPA) ([2]; in PBS buffer) [nm] | wavelength of strongest photoacoustic intensity (λPA) ([2]; in chloroform (CHCl3), 20 μM) [nm] | decrease of PA signal (photobleaching) [3] [%] | change in the absorbance of the dye (maximum absorption at 880 nm) [4] | maximum absorption wavelength (λabs) ([1]; in DCM) [nm] | maximum absorption wavelength (λabs) ([1]; in DMSO) [nm] | absorption maximum ([1]; solvent not stated) [nm] | fluorescence [5] | change in the absorbance (porcine liver esterase)
O=C1OC2(c3ccc(-c4ccc(N5CCCCC5)s4)cc3Oc3cc(-c4ccc(N5CCCCC5)s4)ccc32)c2ccccc21 [Compound 3] | 372 | – | – | – | – | – | – | – | – | –
CCOC(=O)c1ccccc1C1=c2cc/c(=C3/C=CC(=[N+]4CCCCC4)S3)cc2Oc2cc(-c3ccc(N4CCCCC4)s3)ccc21.[Cl-] [XanthCR-880, 1-{5-[(3E)-9-[2-(Ethoxycarbonyl)phenyl]-6-[5-(piperidin-1-yl)thiophen-2-yl]-3H-xanthen-3-ylidene]-2,5-dihydrothiophen-2-ylidene}-1λ5-piperidin-1-ylium chloride] | – | 865 | 890 | 45 | no change | 880 | 890 | 880 | sufficient fluorescence for brightness imaging | no significant change
